Source: patent US8476307B2, “Pharmaceutical composition based on idazoxan, salts, hydrates or polymorphs thereof” (Pierre Fabre Medicament, priority 2003, dated 2013)
Counter-ions that a name gives are not always drawn. Like-named read-outs stand apart in the source and are kept apart here.

Legend:
[1] = Pharmacokinetics of the enantiomers of idazoxan in healthy male subjects; settings: for AUC0-∞ of R(−) idazoxan / AUC0-∞ of S(+) idazoxan / CLtot/F of R(−) idazoxan / Cmax of R(−) idazoxan / Cmax of S(+) idazoxan / Tmax of R(−) idazoxan / Tmax of S(+) idazoxan / t1/2 of R(−) idazoxan / t1/2 of S(+) idazoxan / CLtot/F of S(+) idazoxan: single administration of the racemate (20 mg) or of the enantiomer alone (10 mg)
Protocol: Young healthy male subjects were allocated at random to receive a single dose of each of the following substances on one occasion: 20 mg of idazoxan racemate (polymorph of form I); 10 mg of the R(−) enantiomer; 10 mg of the S(+) enantiomer.

α2-adrenoreceptors = test: α2-adrenoreceptor binding in rat cortical tissue; settings: initially, without preincubation
Protocol: (§1) The binding values of the α2-adrenoreceptors for the two enantiomers were evaluated using rat cortical tissue. In addition, the biological activity was evaluated by the inhibition of the hypothermia induced by guanabenz in mice.

[2] = test system: hypothermia induced by guanabenz; test: Inhibition of the hypothermia induced by guanabenz; assay type: in vivo, mice; settings: initially, without preincubation
Protocol: as §1

[3] = ICH criteria
[4] = Solubility in various solvents

Structure (SMILES)	AUC0-∞ of R(−) idazoxan [1] [µg·h/mL]	AUC0-∞ of S(+) idazoxan [1] [µg·h/mL]	CLtot/F of R(−) idazoxan [1] [L/h]	Cmax of R(−) idazoxan [1] [ng/mL]	Cmax of S(+) idazoxan [1] [ng/mL]	Tmax of R(−) idazoxan [1] [h]	Tmax of S(+) idazoxan [1] [h]	t1/2 of R(−) idazoxan [1] [h]	t1/2 of S(+) idazoxan [1] [h]	CLtot/F of S(+) idazoxan [1] [L/h]	also measured
c1ccc2c(c1)OC[C@@H](C1=NCCN1)O2 [R(−) Idazoxan]	0.043 ± 0.019	0.014 ± 0.008	230 ± 92	10.2 ± 3.9	1.6 ± 1.0	2.5 ± 0.5	4.0 ± 0	3.1 ± 0.6	4.1 ± 0.5	–	–
c1ccc2c(c1)OC[C@H](C1=NCCN1)O2 [S(+)Idazoxan]	0.011 ± 0.006	0.027 ± 0.013	–	1.3 ± 0.7	7.2 ± 5.1	3.7 ± 0.5	2.1 ± 0.8	3.7 ± 0.4	7.8 ± 0.5	397 ± 205	binding affinity relative to the R(−) form (α2-adrenoreceptors): ten times greater; effectiveness in the antagonism of the hypothermia relative to the R(−) form [2]: 15 times; apparent clearance relative to the R(−) enantiomer ([1]; human, in vivo): approximately 1.5 times; distribution relative to the R(−) enantiomer ([1]; human, in vivo): approximately 1.5 times; t1/2 for conversion of S(+) to R(−) ([1]; in vivo): 4 h
Cl.c1ccc2c(c1)OCC(C1=NCCN1)O2 (stereo not drawn) [Form I]	0.058 ± 0.023	0.044 ± 0.021	170 ± 76	11.9 ± 4.6	8.3 ± 3.6	2.1 ± 0.7	2.1 ± 0.7	3.3 ± 0.4	3.3 ± 0.4	245 ± 136	photostability [3]: no decomposition; Long-term stability (25° C./60% RH, listed as 500): 24 months; Long-term stability (25° C./60% RH, listed as 501): 24 months; Long-term stability (25° C./60% RH, listed as 503): 9 months; Long-term stability (25° C./60% RH, listed as 504): 9 months; Long-term stability (25° C./60% RH, listed as OP2): 24 months; Long-term stability (30° C./70% RH, listed as 500): 24 months; Long-term stability (30° C./70% RH, listed as 501): 24 months; Long-term stability (30° C./70% RH, listed as 503): 6 months; Long-term stability (30° C./70% RH, listed as 504): 6 months; Long-term stability (30° C./70% RH, listed as OP2): 24 months; Long-term stability (40° C./75% RH, listed as 500): 6 months; Long-term stability (40° C./75% RH, listed as 501): 6 months; Long-term stability (40° C./75% RH, listed as 503): 6 months; Long-term stability (40° C./75% RH, listed as 504): 6 months; Long-term stability (40° C./75% RH, listed as OP2): 9 months; solubility in water ([4]; batches of the form I): Freely soluble; solubility in ethanol ([4]; batches of the form I, listed as 503): Soluble
c1ccc2c(c1)OCC(C1=NCCN1)O2 (stereo not drawn) [Idazoxan hydrochloride, 2-(2-imidazolinyl)-1,4-benzodioxane hydrochloride]	–	–	–	–	–	–	–	–	–	–	solubility in ethanol ([4]; powder): soluble to fairly soluble; solubility in methanol ([4]; powder): readily soluble; solubility in water ([4]; powder): readily soluble
